In patent US12662707B2, “MYC amplification drives resistance to pan-RAS inhibitors in pancreatic cancer” (The Trustees of Columbia University in the City of New York, priority 2024, dated 2026):

What was measured:
pERK in colon = assay: pERK IHC in colon tissues of KPF/FC mice; type: in vivo, mouse; conditions: KPF/FC cohort; 10 and 25 mg/kg dose levels
Description: (§1) Tumor formation in KPF/FC (KrasLSL.G12D/+; p53flox/flox; Pdx1-Cre) mice was monitored by bi-weekly palpations until the detection of a mass, which was then confirmed by ultrasound. Tumor-bearing mice were randomized and assigned into groups (n=3/dose/timepoint). Single dose of RMC-7977 was administered orally at 10 mg/kg, 25 mg/kg and 50 mg/kg. The same vehicle formulation was used for the control group. Whole blood and tissue (tumors and colons) were harvested at indicated time points preserved as previously described (See Xenograft studies section).
All tissues were fixed for up to 24 hours using 10% neutral buffered formalin and then moved to 70% ethanol for long term storage. All stainings were performed on 4-μm tissue sections. Sections were deparaffinized using a Leica XL ST5010 autostainer, after which slides were subjected to heat-activated epitope retrieval. To block endogenous peroxidases, 20 min incubation in 3% H2O2 (Fisher Scientific) was performed. Slides were further blocked in serum for 1 hour, and primary antibodies were added for overnight incubation at 4° C. The next day, slides were washed and incubated with ImmPRESS HRP Horse Anti-Rabbit IgG Polymer Detection Kit (Vector Laboratories, MP-7401) for 30 min. […] Quantitative analyses of IHC images were performed using ImageJ.

[1] = RMC-7977 levels in KPCY allograft tumor tissue; type: in vivo; conditions: C57Bl/6, mouse, oral, 10 mg/kg
Description: Body weights were measured twice a week during the study. Tissue was harvested either at 4 hours or 24 hours after last dose and preserved as previously described (See Xenograft studies section). Whole blood, tumor, colon and skin tissue concentrations of RMC-7977 were determined using liquid chromatography-tandem mass spectrometry (LC-MS/MS) methods. […] After thorough mixing and centrifugation, the supernatant was directly analyzed on a Sciex 6500+ triple quadrupole mass spectrometer equipped with an ACQUITY or Shimadzu UPLC system. An ACQUITY UPLC BEH C18 or C4 […] (2.1×50 mm) column was used with gradient elution for compound separation. RMC-7977 and IS (verapamil or terfenadine) were detected by positive electrospray ionization using multiple reaction monitoring (RMC-7977: m/z 865.4/706.4 or m/z 865.3/833.5; verapamil: m/z 455.2/164.9; terfenadine: m/z 472.3/436.4). […] BA analysis on blood and tissue samples from xenograft models was run at Wuxi AppTec. BA analysis on blood and tissue samples from allograft models and GEMM was run at Revolution Medicines.

wild type RAS = conditions: reference 14; cited from earlier work
CC3+ apoptotic cells = assay: CC3 IHC in Capan-1 xenograft model (tumor, colon, skin); type: in vivo, mouse
Description: Studies were terminated early if tumor burden reached humane endpoint. Body weights were collected twice a week during the study. Means±s.e.m were plotted in the waterfall plots. For the single-dose pharmacokinetic/pharmacodynamic (PK/PD) study, mice were randomized and assigned into groups (n=3-6/dose/timepoint). […] Sakura, 4583) solution or snap-frozen in LN2 for further analysis. Whole blood was transferred into K2EDTA Microtainer tubes (BD, 365974), incubated for 5 minutes and snap-frozen in LN2. To stain tissues collected from the Capan-1 xenograft model, a similar protocol was used with the following changes. Sections were stained using a Leica BOND automated staining system and primary antibodies were detected with the Leica BOND Polymer detection kit (3-P—PV6119). Stained slides were scanned and digitized with a 3DHistotech Pannoramic whole slide scanner at 20× magnification. Image analysis was performed using HALO software from Indica Labs.

[2] = test system: CC3+ apoptotic cells, Cyclin A2; assay: CC3 and Cyclin A2 IHC in KPF/FC mice (tumor, colon); type: in vivo, mouse
Description: as §1
All tissues were fixed for up to 24 hours using 10% neutral buffered formalin and then moved to 70% ethanol for long term storage. All stainings were performed on 4-μm tissue sections. Sections were deparaffinized using a Leica XL ST5010 autostainer, after which slides were subjected to heat-activated epitope retrieval. To block endogenous peroxidases, 20 min incubation in 3% H2O2 (Fisher Scientific) was performed. Slides were further blocked in serum for 1 hour, and primary antibodies were added for overnight incubation at 4° C. The next day, slides were washed and incubated with ImmPRESS HRP Horse Anti-Rabbit IgG Polymer Detection Kit (Vector Laboratories, MP-7401) for 30 min. Following incubation, ImmPACT DAB peroxidase (Vector Laboratories, SK-4100) was used to develop the stain and hematoxylin was used as nuclear counterstain. Stained slides were imaged at 40× magnification. Quantitative analyses of IHC images were performed using ImageJ.

human PDAC explants = assay: Ex vivo human PDAC explants, IHC for pERK and CC3; type: cell-based
Description: Explant culture sponges and optimized culture media were prepared as previously described in Hasselluhn and Decker-Farrell et al.^54. Human tissue samples were obtained from de-identified patients undergoing resection surgeries, primarily pancreaticoduodenectomy (Whipple) or distal pancreatectomy, at New York-Presbyterian/Columbia University Irving Medical Center. Upon receipt of a resected human PDAC fragment (n=4), each tissue sample was cut into […] slices using a Compresstome. Any tumor tissue remaining after sectioning was fixed in 4% paraformaldehyde (Santa Cruz Biotechnology, sc-281692) for 2 hours, at 4° C. as the Day 0 control. […] Each well of a 24 well plate contained one explant slice placed between bottom sponge (1 cm^3) and a top sponge (2-3 mm thick). After 24 hours culture, explants were collected and fixed in 4% PFA for 2 hours. Fixed tissue was then transferred to 70% ethanol and paraffin embedded for long-term storage and further analysis. All tissues were fixed for up to 24 hours using 10% neutral buffered formalin and then moved to 70% ethanol for long term storage. All stainings were performed on 4-μm tissue sections. Sections were deparaffinized using a Leica XL ST5010 autostainer, after which slides were subjected to heat-activated epitope retrieval. […] Slides were further blocked in serum for 1 hour, and primary antibodies were added for overnight incubation at 4° C. […] Following incubation, ImmPACT DAB peroxidase (Vector Laboratories, SK-4100) was used to develop the stain and hematoxylin was used as nuclear counterstain. Stained slides were imaged at 40× magnification. Quantitative analyses of IHC images were performed using ImageJ.

[3] = explants treated for 24 hours, 10-100 nM

CCn1c(-c2cc(N3CCN(C4CC4)CC3)cnc2[C@H](C)OC)c2c3cc(ccc31)-c1csc(n1)C[C@H](NC(=O)[C@H]1[C@@H]3COC[C@@H]31)C(=O)N1CCC[C@H](N1)C(=O)OCC(C)(C)C2 [RMC-7977]
RAS/MAPK activity (pERK) in colon tissues (pERK in colon): rapidly restored to baseline | half-life [1]: 3.5 h | affinity for wild type RAS compared to mutant variants (wild type RAS): somewhat reduced affinity | time of peak of CC3+ apoptotic cells post-dose (CC3+ apoptotic cells; Capan-1 CDX tumors): 8 h | CC3+ apoptotic cells in tumors relative to vehicle (CC3+ apoptotic cells; Capan-1 CDX tumors, single dose): notable increase | apoptotic cells in colon or skin (CC3+ apoptotic cells; tumor-bearing animals, any timepoint): few apoptotic cells | time to full restoration of Cyclin A2 levels in normal colon ([2]; KPF/FC mice): ≤ 24 h | proliferation (Cyclin A2) in normal colon ([2]; KPF/FC mice, at 12 hours): transient decrease | spike in CC3+ apoptotic cells in tumors ([2]; KPF/FC tumors, four hours after a single dose): ~4 fold | apoptosis in normal tissues ([2]; all doses and time points): negligible or absent | apoptosis marker cleaved caspase 3 (CC3) (IHC) (human PDAC explants; [3]): increase | pERK expression (IHC) (human PDAC explants; [3]): concentration-dependent decrease | concentration of maximal changes in pERK and CC3 (human PDAC explants; highest concentration tested): 100 nM | response of the KRASWT explant model (human PDAC explants; one of the four explant models, KRASWT): sensitive
